Assay results published in PMC7488488 (Acta Pharmaceutica Sinica. B, 2019).

Experiments:
[1] = tested on: T98G cells; assay: MTT cell proliferation assay; assay type: cell-based; details: Homo sapiens, T98G, 24 h, read-out: Anti-proliferative activity IC50, T98G
[2] = molecular target: MDM2 (Homo sapiens, UniProt Q00987); assay: TR-FRET; assay type: binding; details: for inhibition at 1 µM: read-out: Inhibition rate at 1.0 μmol/L, MDM2
[3] = tested on: U251 cells; assay: MTT cell proliferation assay; assay type: cell-based; details: Homo sapiens, U-251, 24 h, read-out: Anti-proliferative activity IC50, U251
[4] = tested on: U87MG cells; assay: MTT cell proliferation assay; assay type: cell-based; details: Homo sapiens, U-87 MG, 24 h, read-out: Anti-proliferative activity IC50, U87MG

Sequence of MDM2 (Q00987 whole entry): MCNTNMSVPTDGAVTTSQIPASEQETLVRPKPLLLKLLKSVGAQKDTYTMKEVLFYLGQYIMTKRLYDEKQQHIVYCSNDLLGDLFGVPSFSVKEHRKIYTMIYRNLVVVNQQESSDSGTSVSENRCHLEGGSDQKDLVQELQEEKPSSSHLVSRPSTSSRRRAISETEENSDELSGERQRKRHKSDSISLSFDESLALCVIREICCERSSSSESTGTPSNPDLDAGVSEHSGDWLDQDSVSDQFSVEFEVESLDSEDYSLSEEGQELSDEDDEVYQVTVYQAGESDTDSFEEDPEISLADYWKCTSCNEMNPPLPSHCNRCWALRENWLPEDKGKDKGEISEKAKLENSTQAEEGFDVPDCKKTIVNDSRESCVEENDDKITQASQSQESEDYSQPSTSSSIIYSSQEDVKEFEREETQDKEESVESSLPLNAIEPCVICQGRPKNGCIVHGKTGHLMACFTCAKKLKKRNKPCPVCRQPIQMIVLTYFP

Structure (SMILES) | IC50 [1] | inhibition at 1 µM [2] | IC50 [3] | IC50 [4] | IC50 [2]
CCOC(=O)[C@H]1Cc2c(cc([N+](=O)[O-])cc2[N+](=O)[O-])[C@@H](O)[C@@]12C(=O)Nc1ccc(F)cc12 [4b, Ethyl (1′R,3R,3′S)-5-fluoro-1′-hydroxy-5′,7′-dinitro-2-oxo-3′,4′-dihydro-1′H-spiro[indoline-3,2′-naphthalene]-3′-carboxylate] | 49 ± 6.3 µM | 81.4 ± 10.2% | 32.6 ± 3.5 µM | 25.7 ± 1.4 µM | –
CCOC(=O)[C@H]1Cc2c(cc([N+](=O)[O-])cc2[N+](=O)[O-])[C@H](O)[C@]12C(=O)Nc1ccc(F)cc12 [4b′, Ethyl (1′S,3S,3′S)-5-fluoro-1′-hydroxy-5′,7′-dinitro-2-oxo-3′,4′-dihydro-1′H-spiro[indoline-3,2′-naphthalene]-3′-carboxylate] | > 50 µM | 55.6% | > 50 µM | > 50 µM | –
CCOC(=O)[C@H]1Cc2c(cc([N+](=O)[O-])cc2[N+](=O)[O-])[C@@H](O)[C@@]12C(=O)Nc1c(F)cccc12 [4c, Ethyl (1′R,3R,3′S)-7-fluoro-1′-hydroxy-5′,7′-dinitro-2-oxo-3′,4′-dihydro-1′H-spiro[indoline-3,2′-naphthalene]-3′-carboxylate] | 51.6 ± 6.2 µM | 76.5 ± 13.7% | 34.3 ± 4 µM | 19.4 ± 2.3 µM | –
CCOC(=O)[C@H]1Cc2c(cc([N+](=O)[O-])cc2[N+](=O)[O-])[C@H](O)[C@]12C(=O)Nc1c(F)cccc12 [4c′, Ethyl (1′S,3S,3′S)-7-fluoro-1′-hydroxy-5′,7′-dinitro-2-oxo-3′,4′-dihydro-1′H-spiro[indoline-3,2′-naphthalene]-3′-carboxylate] | > 50 µM | 45.3% | > 50 µM | 59.9 µM | –
CCOC(=O)[C@H]1Cc2c(cc([N+](=O)[O-])cc2[N+](=O)[O-])[C@@H](O)[C@@]12C(=O)Nc1ccc(Cl)cc12 [4d, Ethyl (1′R,3R,3′S)-5-chloro-1′-hydroxy-5′,7′-dinitro-2-oxo-3′,4′-dihydro-1′H-spiro[indoline-3,2′-naphthalene]-3′-carboxylate] | 21.6 ± 4.5 µM | 82.6 ± 8.4% | 17.8 ± 3.2 µM | 8.3 ± 1.5 µM | 0.52 ± 0.07 µM
CCOC(=O)[C@H]1Cc2c(cc([N+](=O)[O-])cc2[N+](=O)[O-])[C@H](O)[C@]12C(=O)Nc1ccc(Cl)cc12 [4d′, Ethyl (1′S,3S,3′S)-5-chloro-1′-hydroxy-5′,7′-dinitro-2-oxo-3′,4′-dihydro-1′H-spiro[indoline-3,2′-naphthalene]-3′-carboxylate] | > 50 µM | 54.2% | > 50 µM | 60.4 µM | 1.8 ± 0.12 µM
CCOC(=O)[C@H]1Cc2c(cc([N+](=O)[O-])cc2[N+](=O)[O-])[C@@H](O)[C@@]12C(=O)Nc1cc(Cl)ccc12 [4e, Ethyl (1′R,3R,3′S)-6-chloro-1′-hydroxy-5′,7′-dinitro-2-oxo-3′,4′-dihydro-1′H-spiro[indoline-3,2′-naphthalene]-3′-carboxylate] | 22.5 ± 4.2 µM | 76.4 ± 6% | 28.6 ± 2.9 µM | 19.2 ± 4.4 µM | –
CCOC(=O)[C@H]1Cc2c(cc([N+](=O)[O-])cc2[N+](=O)[O-])[C@H](O)[C@]12C(=O)Nc1cc(Cl)ccc12 [4e′, Ethyl (1′S,3S,3′S)-6-chloro-1′-hydroxy-5′,7′-dinitro-2-oxo-3′,4′-dihydro-1′H-spiro[indoline-3,2′-naphthalene]-3′-carboxylate] | > 50 µM | 48.3% | > 50 µM | > 50 µM | –
CCOC(=O)[C@H]1Cc2c(cc([N+](=O)[O-])cc2[N+](=O)[O-])[C@@H](O)[C@@]12C(=O)Nc1cccc(Br)c12 [4f, Ethyl (1′R,3R,3′S)-4-bromo-1′-hydroxy-5′,7′-dinitro-2-oxo-3′,4′-dihydro-1′H-spiro[indoline-3,2′-naphthalene]-3′-carboxylate] | 27.2 ± 3 µM | 66.9 ± 9.1% | 25.8 ± 4.2 µM | 20.7 ± 3.5 µM | –
CCOC(=O)[C@H]1Cc2c(cc([N+](=O)[O-])cc2[N+](=O)[O-])[C@H](O)[C@]12C(=O)Nc1cccc(Br)c12 [4f′, Ethyl (1′S,3S,3′S)-4-bromo-1′-hydroxy-5′,7′-dinitro-2-oxo-3′,4′-dihydro-1′H-spiro[indoline-3,2′-naphthalene]-3′-carboxylate] | > 50 µM | 54.8% | > 50 µM | 69.8 µM | –
CCOC(=O)[C@H]1Cc2c(cc([N+](=O)[O-])cc2[N+](=O)[O-])[C@@H](O)[C@@]12C(=O)Nc1ccc(Br)cc12 [4g, Ethyl (1′R,3R,3′S)-5-bromo-1′-hydroxy-5′,7′-dinitro-2-oxo-3′,4′-dihydro-1′H-spiro[indoline-3,2′-naphthalene]-3′-carboxylate] | 9.5 ± 0.7 µM | 92.3 ± 11.2% | 8.6 ± 0.6 µM | 4.9 ± 0.5 µM | 0.28 ± 0.06 µM
CCOC(=O)[C@H]1Cc2c(cc([N+](=O)[O-])cc2[N+](=O)[O-])[C@H](O)[C@]12C(=O)Nc1ccc(Br)cc12 [4g′, Ethyl (1′S,3S,3′S)-5-bromo-1′-hydroxy-5′,7′-dinitro-2-oxo-3′,4′-dihydro-1′H-spiro[indoline-3,2′-naphthalene]-3′-carboxylate] | > 50 µM | 51.9% | > 50 µM | > 50 µM | 2.5 ± 0.3 µM
CCOC(=O)[C@H]1Cc2c(cc([N+](=O)[O-])cc2[N+](=O)[O-])[C@@H](O)[C@@]12C(=O)Nc1cc(Br)ccc12 [4h, Ethyl (1′R,3R,3′S)-6-bromo-1′-hydroxy-5′,7′-dinitro-2-oxo-3′,4′-dihydro-1′H-spiro[indoline-3,2′-naphthalene]-3′-carboxylate] | 14.4 ± 2.8 µM | 76.7 ± 5.2% | 18.3 ± 1.5 µM | 20.4 ± 3.3 µM | –
CCOC(=O)[C@H]1Cc2c(cc([N+](=O)[O-])cc2[N+](=O)[O-])[C@H](O)[C@]12C(=O)Nc1cc(Br)ccc12 [4h′, Ethyl (1′S,3S,3′S)-6-bromo-1′-hydroxy-5′,7′-dinitro-2-oxo-3′,4′-dihydro-1′H-spiro[indoline-3,2′-naphthalene]-3′-carboxylate] | > 50 µM | 61.2% | > 50 µM | 47.6 µM | –
CCOC(=O)[C@H]1Cc2c(cc([N+](=O)[O-])cc2[N+](=O)[O-])[C@@H](O)[C@@]12C(=O)Nc1ccc([N+](=O)[O-])cc12 [4i, Ethyl (1′R,3R,3′S)-1′-hydroxy-5,5′,7′-trinitro-2-oxo-3′,4′-dihydro-1′H-spiro[indoline-3,2′-naphthalene]-3′-carboxylate] | 41.2 ± 6.1 µM | 47.7 ± 4.1% | 36.2 ± 4.6 µM | 25.6 ± 2.8 µM | –
CCOC(=O)[C@H]1Cc2c(cc([N+](=O)[O-])cc2[N+](=O)[O-])[C@H](O)[C@]12C(=O)Nc1ccc([N+](=O)[O-])cc12 [4i′, Ethyl (1′S,3S,3′S)-1′-hydroxy-5,5′,7′-trinitro-2-oxo-3′,4′-dihydro-1′H-spiro[indoline-3,2′-naphthalene]-3′-carboxylate] | > 50 µM | 39.3% | > 50 µM | 47.9 µM | –
CCOC(=O)[C@H]1Cc2c(cc([N+](=O)[O-])cc2[N+](=O)[O-])[C@@H](O)[C@@]12C(=O)Nc1ccc(C)cc12 [4j, Ethyl (1′R,3R,3′S)-1′-hydroxy-5-methyl-5′,7′-dinitro-2-oxo-3′,4′-dihydro-1′H-spiro[indoline-3,2′-naphthalene]-3′-carboxylate] | 39.3 ± 3.6 µM | 64.4 ± 7.2% | 38.9 ± 4.5 µM | 31.1 ± 1.76 µM | –
CCOC(=O)[C@H]1Cc2c(cc([N+](=O)[O-])cc2[N+](=O)[O-])[C@H](O)[C@]12C(=O)Nc1ccc(C)cc12 [4j′, Ethyl (1′S,3S,3′S)-1′-hydroxy-5-methyl-5′,7′-dinitro-2-oxo-3′,4′-dihydro-1′H-spiro[indoline-3,2′-naphthalene]-3′-carboxylate] | > 50 µM | 49.2% | > 50 µM | > 50 µM | –
O=C(c1ccccc1)[C@H]1Cc2c(cc([N+](=O)[O-])cc2[N+](=O)[O-])[C@@H](O)[C@@]12C(=O)Nc1ccccc12 [4k, (1′R,3R,3′S)-3′-Benzoyl-1′-hydroxy-5′,7′-dinitro-3′,4′-dihydro-1′H-spiro[indoline-3,2′-naphthalen]-2-one] | 43.7 ± 6.6 µM | 46.4 ± 4.9% | 53.8 ± 9 µM | 38.7 ± 6.5 µM | –
O=C(c1ccccc1)[C@H]1Cc2c(cc([N+](=O)[O-])cc2[N+](=O)[O-])[C@H](O)[C@]12C(=O)Nc1ccccc12 [4k′, (1′S,3S,3′S)-3′-Benzoyl-1′-hydroxy-5′,7′-dinitro-3′,4′-dihydro-1′H-spiro[indoline-3,2′-naphthalen]-2-one] | > 50 µM | 35.4% | > 50 µM | > 50 µM | –
O=C(c1ccccc1F)[C@H]1Cc2c(cc([N+](=O)[O-])cc2[N+](=O)[O-])[C@@H](O)[C@@]12C(=O)Nc1ccccc12 [4l, (1′R,3R,3′S)-3′-(2-Fluorobenzoyl)-1′-hydroxy-5′,7′-dinitro-3′,4′-dihydro-1′H-spiro[indoline-3,2′-naphthalen]-2-one] | 43.6 ± 4.8 µM | 47.2 ± 5.71% | 38.7 ± 6.1 µM | 32.5 ± 4.7 µM | –
O=C(c1ccccc1F)[C@H]1Cc2c(cc([N+](=O)[O-])cc2[N+](=O)[O-])[C@H](O)[C@]12C(=O)Nc1ccccc12 [4l′, (1′S,3S,3′S)-3′-(2-Fluorobenzoyl)-1′-hydroxy-5′,7′-dinitro-3′,4′-dihydro-1′H-spiro[indoline-3,2′-naphthalen]-2-one] | > 50 µM | 31.6% | > 50 µM | > 50 µM | –
O=C(c1ccc(F)cc1)[C@H]1Cc2c(cc([N+](=O)[O-])cc2[N+](=O)[O-])[C@@H](O)[C@@]12C(=O)Nc1ccccc12 [4m, (1′R,3R,3′S)-3′-(4-Fluorobenzoyl)-1′-hydroxy-5′,7′-dinitro-3′,4′-dihydro-1′H-spiro[indoline-3,2′-naphthalen]-2-one] | 37.1 ± 3.2 µM | 44.6 ± 3.7% | 39.5 ± 3.8 µM | 47.2 ± 3.8 µM | –
